Reference: patent publication US20110237676A1, “SPERMICIDAL AND MICROBICIDAL COMPOSITIONS” (LEHIGH UNIVERSITY, priority 2007, published 2011)

How the values were obtained:
[1] = test system: sperm cells (whole semen); assay: Sperm motility of treated whole semen scored by differential interference microscopy (DIC); format: cell-based, human
Experimental: (§1) The general experimental protocol was as follows: Whole semen, obtained from human subjects after informed consent, was treated with various concentrations of fluorous surfactants. Samples were incubated for 5-10 min at 37° C. and 5% CO2. Semen samples were diluted in an isotonic buffered human sperm medium containing glucose. Sperm motility was scored as “% motility” using differential interference microscopy (“DIC”). Cell necropsy was determined by propidium iodide (“PI”) staining, which is known to stain the DNA of dead cells, and “% death” was scored using epifluorescence microscopy (stained and unstained sperm cells were counted to obtain a live/dead ratio). Acrosome integrity was determined with epifluorescence microscopy and fluorescein-conjugated Pisum sativum agglutinin (“FITC-PSA”) staining, the staining patterns of which are known to indicate the status of the acrosomal membrane.
(§2) To validate the general experimental protocol, the motility of whole semen treated with N-9 for 5 min was determined using DIC microscopy and PI staining Results are presented in Table 1.

[2] = test system: sperm cells (whole semen); assay: Sperm cell necropsy by propidium iodide (PI) staining, epifluorescence microscopy; format: cell-based, human
Experimental: as §1, §2

[3] = test system: acrosome of human spermatozoa; assay: Acrosome integrity by FITC-PSA staining, epifluorescence microscopy; format: cell-based; conditions: average; for Type I: bright acrosome; for Type III: equatorial segment; for Type II: medium acrosome; for Type IV: no labeling
Experimental: as §1
Staining with fluorescein isothiocyanate Pisium sativum agglutinin (“FITC-PSA”) is known to stain components of the acrosome, and the staining pattern differs depending on the condition of the acrosomal membrane. This technique may be used to identify whether the acrosome is intact. Various patterns of fluorescence are seen after labeling of air-dried human spermatozoa with FITC lectins, including a bright acrosome (Type I), a medium acrosome (Type II), an equatorial segment (Type III), and no labeling (Type IV). See, e.g., Mortimer et al., “Specific Labelling by Peanut Agglutinin of The Outer Acrosomal Membrane of The Human Spermatozoon,” J. Reprod. Fert. 81, 127-35 (1987). Averages of FTIC-PSA results are presented in Table 6, which includes percentages of acrosomes compromised and types of sperm visualized in the control and treated samples.

Escherichia coli = assay: Effects on microbes: growth inhibition of E. coli; format: cell-based
Description: (§3) Fluorous surfactants also disrupt the membranes of pathogenic microbes, and they therefore have microbicidal activities. Preferably, they are toxic to pathogenic microorganisms, yet compatible with the flora normally found in human mucosal (e.g., vaginal) tissues. The effects of various fluorous surfactants on some laboratory models of pathogenic microorganisms (Escherichia coli, Saccharomyces cerevisiae, and Candida albicans) were studied.

Candida albicans = assay: Effects on microbes: growth inhibition of Candida albicans; format: cell-based; conditions: for inhibition of growth of Candida: 400 mM
Description: as §3

HeLa cells = assay: Effects on HeLa (cervix) cells, morphology by microscopy; format: cell-based, human; conditions: 1.76 mM, 30 min
Description: The effects of nonoxynol-9 and various fluorous surfactants on HeLa cells, which are a laboratory model for human cervical cells, were studied. […] Accordingly, it is believed that use of a spermicidal fluorous surfactant will be less irritating to human vaginal tissue.

Compound: O=S(=O)([O-])CCCOCC(F)(F)C(F)(F)F.[Na+] [F5-PS]
- % Motility ([1]; 6%, 5 min): 1%
- % Motility ([1]; 9%, 5 min): 0%
- % Motility ([1]; 9%, 10 min): 0%
- % Motility ([1]; 12%, 5 min): 0%
- % Death ([2]; 6%, 5 min): 91%
- % Death ([2]; 6%, 10 min): 99%
- % Death ([2]; 9%, 5 min): 98%
- % Death ([2]; 9%, 10 min): 96%
- % Death ([2]; 12%, 5 min): 99%

Compound: OCCOCCOCCOCC(F)(F)C(F)(F)F [F5-TEG, F5-triethylene glycol]
- Acrosome Compromised ([3]; 5%): 95%
- Acrosome Not Compromised ([3]; 5%): 5%
- Type I ([3]; 5%): 5%
- Type III ([3]; 5%): 3%
- Type II ([3]; 5%): 28%
- Type IV ([3]; 5%): 64%
- Acrosome Compromised ([3]; 6%): 98%
- Acrosome Not Compromised ([3]; 6%): 2%
- Type I ([3]; 6%): 2%
- Type III ([3]; 6%): 1%
- Type II ([3]; 6%): 3%
- Type IV ([3]; 6%): 93%
- Acrosome Compromised ([3]; 10%): 67%
- Acrosome Not Compromised ([3]; 10%): 33%
- Type I ([3]; 10%): 33%
- Type III ([3]; 10%): 2%
- Type II ([3]; 10%): 26%
- Type IV ([3]; 10%): 38%
- inhibition to growth of E. coli relative to non-fluorous homologs (Escherichia coli): greater inhibition
- inhibition of E. coli relative to F7-TEG (Escherichia coli; comparable doses): less inhibition
- % Motility ([1]; 4%, 5 min): 0%
- % Motility ([1]; 5%, 5 min): 0%
- % Motility ([1]; 6%, 5 min): 0%
- % Motility ([1]; 7%, 5 min): 0%
- % Motility ([1]; 8%, 5 min): 0%
- % Motility ([1]; 9%, 5 min): 0%
- % Motility ([1]; 10%, 5 min): 0%
- % Motility ([1]; 10%, 10 min): 0%
- % Motility ([1]; 12%, 5 min): 0%
- % Motility ([1]; 15%, 5 min): 0%
- % Motility ([1]; 15%, 10 min): 0%
- inhibition of Candida relative to F7-TEG (Candida albicans): somewhat less inhibitory
- % Death ([2]; 4%, 5 min): 100%
- % Death ([2]; 5%, 5 min): 96%
- % Death ([2]; 6%, 5 min): 100%
- % Death ([2]; 7%, 5 min): 98%
- % Death ([2]; 8%, 5 min): 99%
- % Death ([2]; 9%, 5 min): 100%
- % Death ([2]; 10%, 5 min): 100%
- % Death ([2]; 10%, 10 min): 100%
- % Death ([2]; 12%, 5 min): 96%
- % Death ([2]; 15%, 5 min): 94%
- % Death ([2]; 15%, 10 min): 100%

Compound: O=S(=O)([O-])CCCOCC(F)(F)C(F)(F)C(F)(F)F.[Na+] [F7-PS, sodium 3-(2,2,3,3,4,4,4-heptafluoro-butoxy)-propane-1-sulfonate]
- Acrosome Compromised ([3]; 3%): 36%
- Acrosome Not Compromised ([3]; 3%): 64%
- Type I ([3]; 3%): 64%
- Type III ([3]; 3%): 0%
- Type II ([3]; 3%): 13%
- Type IV ([3]; 3%): 22%
- Acrosome Compromised ([3]; 4%): 100%
- Acrosome Not Compromised ([3]; 4%): 0%
- Type I ([3]; 4%): 0%
- Type III ([3]; 4%): <1%
- Type II ([3]; 4%): 4%
- Type IV ([3]; 4%): 95%
- Acrosome Compromised ([3]; 7%): 41%
- Acrosome Not Compromised ([3]; 7%): 59%
- Type I ([3]; 7%): 59%
- Type III ([3]; 7%): 0%
- Type II ([3]; 7%): 40%
- Type IV ([3]; 7%): 1%
- inhibition of E. coli (Escherichia coli; 250 mM, compared with F7-TEG/F5-TEG treatments): comparable inhibition
- % Motility ([1]; 4%, 5 min): <1%
- % Motility ([1]; 5%, 5 min): <1%
- % Motility ([1]; 5%, 10 min): 0%
- % Motility ([1]; 7%, 5 min): 0%
- inhibition of growth of Candida (Candida albicans; exposure in the order of 24 hours): significant inhibition of growth
- inhibition of growth of Candida (Candida albicans; exposure limited to 3 or 6 hours): allowed recovery of growth
- % Death ([2]; 4%, 5 min): 90%
- % Death ([2]; 4%, 10 min): 99%
- % Death ([2]; 5%, 5 min): 96%
- % Death ([2]; 5%, 10 min): 96%
- % Death ([2]; 7%, 5 min): 100%

Compound: OCCOCCOCCOCC(F)(F)C(F)(F)C(F)(F)F [F7-TEG, F7-triethylene glycol]
- Acrosome Compromised ([3]; 5%): 87%
- Acrosome Not Compromised ([3]; 5%): 13%
- Type I ([3]; 5%): 13%
- Type III ([3]; 5%): <1%
- Type II ([3]; 5%): 59%
- Type IV ([3]; 5%): 28%
- Acrosome Compromised ([3]; 6%): 88%
- Acrosome Not Compromised ([3]; 6%): 13%
- Type I ([3]; 6%): 13%
- Type III ([3]; 6%): 5%
- Type II ([3]; 6%): 25%
- Type IV ([3]; 6%): 58%
- Acrosome Compromised ([3]; 10%): 96%
- Acrosome Not Compromised ([3]; 10%): 4%
- Type I ([3]; 10%): 4%
- Type III ([3]; 10%): 3%
- Type II ([3]; 10%): 34%
- Type IV ([3]; 10%): 59%
- inhibition to growth of E. coli relative to non-fluorous homologs (Escherichia coli): greater inhibition
- growth of E. coli (Escherichia coli; final concentrations of 1% or greater, 3 hours or longer): unable to grow
- % Motility ([1]; 5%, 5 min): 0%
- % Motility ([1]; 6%, 5 min): 0%
- % Motility ([1]; 7%, 5 min): 0%
- % Motility ([1]; 8%, 5 min): 0%
- % Motility ([1]; 9%, 5 min): 0%
- % Motility ([1]; 10%, 5 min): 1%
- % Motility ([1]; 12%, 5 min): 0%
- % Motility ([1]; 15%, 5 min): 0%
- % Motility ([1]; 15%, 10 min): 0%
- inhibition of Candida (Candida albicans; 5%, exposure 3 hours or longer): substantial inhibition
- % Death ([2]; 5%, 5 min): 97%
- % Death ([2]; 5%, 10 min): 99%
- % Death ([2]; 6%, 5 min): 98%
- % Death ([2]; 7%, 5 min): 99%
- % Death ([2]; 8%, 5 min): 100%
- % Death ([2]; 9%, 5 min): 100%
- % Death ([2]; 10%, 5 min): 95%
- % Death ([2]; 12%, 5 min): 99%
- % Death ([2]; 15%, 5 min): 98%
- % Death ([2]; 15%, 10 min): 100%

Compound: nonoxynol-9 [N-9, reference compound]
- % Motility ([1]; 0.001%, 5 min, whole semen): 43%
- % Motility ([1]; 0.005%, 5 min, whole semen): 60%
- % Motility ([1]; 0.01%, 5 min, whole semen): <1%
- % Motility ([1]; 0.1%, 5 min, whole semen): 0%
- % Death ([2]; 0.001%, 5 min, PI staining): 38%
- killing of sperm cells ([2]; 1.76 mM, 5 min): kill essentially all sperm cells
- % Death ([2]; 0.005%, 5 min, PI staining): 60%
- % Death ([2]; 0.01%, 5 min, PI staining): 67%
- % Death ([2]; 0.1%, 5 min, PI staining): 94%
- morphological changes of HeLa cells (HeLa cells): significant morphological changes
